The results in this text go back to patent US5817826A, “Oxazolinone derivatives having cytosolic phospholipase A2 inhibitory activity” (Shionogi & Co., Ltd., priority 1993, dated 1998).

The test has as its target T1, cytosolic PLA2 (Homo sapiens, UniProt P47712).
T1 sequence (P47712 1-749): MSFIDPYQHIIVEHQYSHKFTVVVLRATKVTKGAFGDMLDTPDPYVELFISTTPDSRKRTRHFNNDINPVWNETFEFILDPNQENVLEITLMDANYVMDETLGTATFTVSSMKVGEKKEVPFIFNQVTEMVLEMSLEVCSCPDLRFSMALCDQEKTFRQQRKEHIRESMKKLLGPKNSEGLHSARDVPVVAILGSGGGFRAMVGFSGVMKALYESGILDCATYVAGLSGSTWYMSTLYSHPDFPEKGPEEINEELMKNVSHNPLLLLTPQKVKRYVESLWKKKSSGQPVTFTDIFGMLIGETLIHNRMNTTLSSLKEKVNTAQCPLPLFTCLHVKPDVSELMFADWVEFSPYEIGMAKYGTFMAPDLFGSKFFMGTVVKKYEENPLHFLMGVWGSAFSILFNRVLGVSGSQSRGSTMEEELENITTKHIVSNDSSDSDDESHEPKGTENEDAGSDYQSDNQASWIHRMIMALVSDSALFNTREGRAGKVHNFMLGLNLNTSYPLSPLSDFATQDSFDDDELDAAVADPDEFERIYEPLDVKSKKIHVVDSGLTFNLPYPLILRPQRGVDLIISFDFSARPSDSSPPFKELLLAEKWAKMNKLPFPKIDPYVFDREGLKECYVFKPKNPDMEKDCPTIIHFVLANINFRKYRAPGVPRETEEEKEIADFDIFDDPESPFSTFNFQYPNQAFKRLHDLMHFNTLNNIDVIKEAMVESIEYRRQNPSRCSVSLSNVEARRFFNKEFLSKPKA
Nature of the test: Cytosolic PLA2 inhibition activity (sonicated liposomes with 1-palmitoyl-2-[14C]arachidonyl-sn-glycero-3-phosphocholine). The format is biochemical. To be noted: for IC50: 2 μM radiolabeled phosphatidylcholine liposomes, 1 mM CaCl2, pH 7.4; for inhibition at 2 µM: compound at 2 μM, relative to enzyme control. On the procedure:
Taking the above matter into consideration, the compounds of the present invention were evaluated for their effect on cytosolic PLA2 activity as described in published literature [Kramer, R. M., Robers, E. F., Manetta, J. and Putanam, J. E. et al., J. Biol. Chem. 268 (8): 5268-5272, 1991]. Briefly, PLA2 activity was assayed using sonicated liposomes containing 1-palmitoyl-2-[^14 C]arachidonyl-sn-glycero-3-phosphocholine and sn-1,2-dioleoyl glycerol at a molar ratio of 2:1. The assay mixture contained 1 mM CaCl2, 2 mM 2-mercaptoethanol, 150 mM NaCl, 50 mM Hepes, pH 7.4, and 0.1 mg/ml BSA. The substrate consisted of 2 μM radiolabeled phosphatidycholine liposomes containing 1 μM dioleoyl glycerol.
The amount of released fatty acids in the reaction as mentioned above was quantitated by a liquid scintillation counter. Separately, the same assay was performed except that the compound of the present invention was not added to serve as the enzyme control. The inhibitioory activity was expressed as a percent (%) of PLA2 activity in the enzyme control, and thereby 50% inhibition concentration was calculated.

In the case of `CC(C)=CCC[C@H](C)CCN1C(=O)O[C@@H](c2ccccc2)[C@@H]1c1ccccc1` [Compound 0347], the concentration for half-maximal inhibition (IC50) came out at 7.4 µM and the inhibition at 2 µM amounted to 33%.

As to `O=c1oc(-c2ccccc2)c(-c2ccccc2)n1Cc1ccc(Cl)s1` [Compound 0086], the IC50 was 8.3 µM and the inhibition at 2 µM stood at 19%. `CC(C)=CCn1cc(C(c2ccccc2)(c2ccccc2)c2ccccc2)oc1=O` [Compound 0140]: the IC50 was determined as 89 µM. On the same count and under the same terms, for `COC(=O)c1c(-c2ccccc2)oc(=O)n1Cc1ccccc1` [Compound 0079] the value was 218 µM; for `Cc1noc(C)c1Cn1c(-c2ccccc2)c(-c2ccccc2)oc1=O` [Compound 0109], 250 µM. `CC(C)=CCC/C(C)=C/CN1C(=O)O[C@@H](c2ccccc2)[C@H]1c1ccccc1` [Compound 0182]: the IC50 is 66 µM. The molecule `O=c1oc(-c2ccccc2)c(-c2ccccc2)n1CCc1ccccc1` [Compound 0075, 4,5-Diphenyl-3-N-phenylethyl-3-oxazolin-2-one] registered a half-inhibitory concentration (IC50) of 14 µM and an inhibition at 2 µM of 21%. Consider `CC(C)=CCC/C(C)=C/CC/C(C)=C/Cn1c(-c2ccccc2)c(-c2ccccc2)oc1=O` [Compound 0069], for which the IC50 was found to be 153 µM. The same measure, in the same setting: next, `O=C1O[C@@H](c2ccccc2)[C@@H](c2ccccc2)N1Cc1cccc(F)c1` [Compound 0181]: 101 µM.

As for `CC(C)=CCC/C(C)=C/CN1C(=O)O[C@H](c2ccccc2)[C@H]1c1ccccc1` [Compound 0213], the IC50 came to 9.3 µM and at 2 µM the inhibition was 24%. For `O=C(Cn1c(-c2ccccc2)c(-c2ccccc2)oc1=O)OC(c1ccccc1)c1ccccc1` [Compound 0003], the IC50 was 52 µM. The molecule `O=C1O[C@H](c2ccccc2)[C@@H](c2ccccc2)N1Cc1ccc(Cl)s1` [Compound 0246] had an IC50 of 50 µM and an inhibition at 2 µM of 20%. For `O=c1oc(-c2ccccc2)c(-c2ccccc2)n1S(=O)(=O)c1ccc2ccccc2c1` [Compound 0067], the 50% inhibitory concentration (IC50) is more than 50 µM. Still for that read-out and setting: next, `CN1CCN(S(=O)(=O)c2ccc(-c3oc(=O)[nH]c3-c3ccccc3)cc2)CC1` [Compound 0037]: 207 µM.

With `Cn1c(-c2ccccc2)c(-c2ccccc2)oc1=O` [Compound 0002], half-maximal inhibition (IC50) was put at 68 µM. Molecule `O=c1oc(-c2ccccc2)c(-c2ccccc2)n1COCc1ccccc1` [Compound 0099] registered an IC50 of 42 µM and an inhibition at 2 µM of 12%. On the same counts, the results for `O=c1oc(-c2ccccc2)c(-c2ccccc2)n1Cc1ccccc1F` [Compound 0047, 3-(2-Fluorobenzyl)-4,5-diphenyl-oxazol-2-one] are 35 µM and 17%.

In turn, `CC(C)=CCC/C(C)=C/CN1C(=O)O[C@H](c2ccccc2)[C@@H]1c1ccccc1` [Compound 0169] yielded an IC50 of 85 µM. The molecule `CCCCn1c(-c2ccccc2)c(-c2ccccc2)oc1=O` [Compound 0044] had an IC50 of 54 µM and an inhibition at 2 µM of 19%. In the case of `O=c1oc(-c2ccccc2)c(-c2ccccc2)n1CCCCOc1ccccc1` [Compound 0090], the IC50 turned out to be 65 µM and the inhibition at 2 µM stood at 14%. The molecule `CC(C)=CCC/C(C)=C/Cn1cc(C(c2ccccc2)c2ccccc2)oc1=O` [Compound 0156] gave an IC50 of 120 µM.

On to `CC(C)=CCn1cc(C(c2ccccc2)c2ccccc2)oc1=O` [Compound 0155], for which the IC50 is 57 µM.

`O=c1oc(-c2ccccc2)c(-c2ccccc2)n1Cc1ccc(F)cc1` [Compound 0048, 3-(4-Fluorobenzyl)-4,5-diphenyl-oxazol-2-one] gave an IC50 of 17 µM. The molecule `CC(C)=CCC/C(C)=C/Cn1cc(-c2ccccc2)oc1=O` [Compound 0095] registered an IC50 of 35 µM and an inhibition at 2 µM of 26%. In the case of `O=C(O)c1[nH]c(=O)oc1-c1ccccc1` [Compound 0029], the half-inhibitory concentration (IC50) turned out to be 103 µM. Molecule `O=C1O[C@@H](c2ccccc2)[C@H](c2ccccc2)N1CCCCc1ccccc1` [Compound 0289] returned an IC50 of 6.6 µM and an inhibition at 2 µM of 36%. On the same counts, the results for `O=c1oc(-c2ccccc2)c(-c2ccccc2)n1Cc1ccccc1` [Compound 0001] are 6 µM and 34%. With `O=C(O)c1ccc(-c2oc(=O)n(Cc3ccccc3)c2-c2ccc(C(=O)O)cc2)cc1` [Compound 0054, 3-Benzyl-4,5-bis-(4-hydroxycarbonylphenyl)-3-oxazolin-2-one], the IC50 stood at 124 µM. `O=c1oc(-c2ccccc2)c(-c2ccccc2)n1Cc1ccccn1` [Compound 0091, 3-(2'-Pyridylmethyl)-4,5-diphenyl-oxazol-2-one] registered an IC50 of 105 µM and an inhibition at 2 µM of 11%.

The molecule `CC(C)=CCC/C(C)=C/CC/C(C)=C/CN1C(=O)O[C@H](c2ccccc2)[C@H]1c1ccccc1` [Compound 0303] came in with an IC50 of 50 µM and an inhibition at 2 µM of 18%. `CC(C)=CCC/C(C)=C\CN1C(=O)O[C@@H](c2ccccc2)[C@@H]1c1ccccc1` [Compound 0313] returned an IC50 of approximately 50 µM and an inhibition at 2 µM of 13%. The corresponding values for `O=C1O[C@H](c2ccccc2)[C@H](c2ccccc2)N1Cc1ccc(Cl)s1` [Compound 0199] are 32 µM and 32%. In turn, `O=c1oc(C(c2ccccc2)c2ccccc2)cn1CCCOc1ccc(C(F)(F)F)cc1` [Compound 0153] returned an IC50 of 126 µM.

Molecule `O=C1O[C@H](c2ccccc2)[C@@H](c2ccccc2)N1CCCCc1ccccc1` [Compound 0247] had an IC50 of 10 µM and an inhibition at 2 µM of 23%. On the same counts, the results for `CC(C)=CCC/C(C)=C\CN1C(=O)O[C@H](c2ccccc2)[C@H]1c1ccccc1` [Compound 0296] are 11 µM and 21%. The corresponding values for `O=c1oc(-c2ccccc2)cn1C(c1ccccc1)c1ccccc1` [Compound 0097] are 28 µM and 48%.

`O=c1oc(-c2ccccc2)cn1Cc1ccccc1` [Compound 0073, 3-Benzyl-5-phenyl-4-oxazolin-2-one]: the IC50 was determined as 50 µM.

`CC(C)=CCC/C(C)=C/Cn1c(-c2ccccc2)c(-c2ccccc2)oc1=O` [Compound 0070] had an IC50 of 4.3 µM and an inhibition at 2 µM of 46%. On the same counts, the results for `O=C1O[C@H](c2ccccc2)[C@@H](c2ccccc2)N1Cc1cccc(F)c1` [Compound 0212] are 43 µM and 21%. `CC(C)=CCC/C(C)=C/CN1C(=O)OC[C@@H]1Cc1ccccc1` [Compound 0315] gave an IC50 of 90 µM and an inhibition at 2 µM of 22%. The corresponding values for `CC(C)=CCC/C(C)=C/CN1C(=O)O[C@@H](c2ccccc2)[C@@H]1c1ccccc1` [Compound 0288] are 2 µM and 50%.

Turning to `O=c1oc(-c2ccccc2)c(-c2ccccc2)n1CCCCc1ccccc1` [Compound 0108], the IC50 was 59 µM. Take `CC(C)=CCC/C(C)=C/CN1C(=O)O[C@@H](c2cccs2)[C@@H]1c1ccccc1` [Compound 0325]: 8.7 µM corresponded to half-maximal inhibition (IC50) and at 2 µM the inhibition was 32%. As to `C#CCn1c(-c2ccccc2)c(-c2ccccc2)oc1=O` [Compound 0062, 3-(2-propynyl)-4,5-diphenyl-oxazol-2-one], the IC50 was found to be 50 µM.

Turning to `O=C1O[C@H](c2ccccc2)[C@H](c2ccccc2)N1Cc1cccc(F)c1` [Compound 0168], the midpoint of inhibition, the IC50, lay at 66 µM. On to `CC(C)=CCC[C@@H](C)CCN1C(=O)O[C@@H](c2ccccc2)[C@@H]1c1ccccc1` [Compound 0346], for which the IC50 was 3 µM and the inhibition at 2 µM was found to be 47%. With `O=c1[nH]c(-c2ccccc2)c(-c2ccc(S(=O)(=O)NCCC[n+]3ccccc3)cc2)o1` [Compound 0028], the IC50 worked out at 103 µM.

Molecule `O=c1oc(-c2ccccc2)c(-c2ccccc2)n1CCCc1ccccc1` [Compound 0092] came in with an IC50 of 8.3 µM and an inhibition at 2 µM of 28%. With `O=c1[nH]cc(C(c2ccccc2)c2ccccc2)o1` [Compound 0142], it took 220 µM to reach half-maximal inhibition (IC50). The molecule `CC(C)=CCn1c(-c2ccccc2)c(-c2ccccc2)oc1=O` [Compound 0071] returned an IC50 of 13 µM and an inhibition at 2 µM of 18%.
